The structures appear in SMILES notation.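 Grown in 96-well plates, cells were treated for 48 hours with each compound at five concentrations. Insufficient inhibition: endpoint recorded as highest concentration tested. The concentration for full growth arrest is given as TGI.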

In one assay the test system is MDA-MB-435. Nature of the assay: NCI anticancer screen, dose series, 48 h.
`O=c1c2cc(S(=O)(=O)Nc3ccccc3Cl)ccc2ncn1NS(=O)(=O)c1ccc(Br)cc1` came in with a TGI above 37.5 µM.
`Nc1ccn(C2CC(O)C(COP(O)(=S)OC3CC(n4ccc(N)nc4=O)OC3CO)O2)c(=O)n1` (configuration not stated) gave a TGI above 100 µM.
Same read-out and setting: for `COc1ccccc1C1CC(=O)CC(c2ccccc2OC)C12C(=O)NC(=S)NC2=O` (configuration not stated) the value was 94.3 µM; for `Cc1nc2sc(CCl)nn2c(=O)c1Cl`, 18.3 µM.
As for `CCOC(=O)c1ccc(C(=O)OCC)n1-c1cc2cc(c1)CSCc1cc(cc(-n3c(C(=O)OCC)ccc3C(=O)OCC)c1)CSC2`, the TGI is above 10 µM.
On the same count and under the same terms, for `CCOC(=O)NC(C(F)(F)F)(C(F)(F)F)P(=O)(OC(C)C)OC(C)C` the value was above 100 µM.

The subject of the next assay is HOP-62 NSCLC. Nature of the assay: NCI anticancer screen, dose series, 48 h.
For the compound `O=c1c2cc(S(=O)(=O)Nc3ccccc3Cl)ccc2ncn1NS(=O)(=O)c1ccc(Br)cc1`, the TGI is above 37.5 µM.
The same measure, in the same setting: for `Nc1ccn(C2CC(O)C(COP(O)(=S)OC3CC(n4ccc(N)nc4=O)OC3CO)O2)c(=O)n1` (configuration not stated) the value was above 100 µM.
For the compound `COc1ccccc1C1CC(=O)CC(c2ccccc2OC)C12C(=O)NC(=S)NC2=O` (configuration not stated), the TGI is above 100 µM.
The same measure, in the same setting: as for `Cc1nc2sc(CCl)nn2c(=O)c1Cl`, the figure is 32.1 µM.
`CCOC(=O)c1ccc(C(=O)OCC)n1-c1cc2cc(c1)CSCc1cc(cc(-n3c(C(=O)OCC)ccc3C(=O)OCC)c1)CSC2` returned a TGI above 10 µM.
Still for that read-out and setting: as for `CCOC(=O)NC(C(F)(F)F)(C(F)(F)F)P(=O)(OC(C)C)OC(C)C`, the figure is above 100 µM.

The next assay has as its system SNB-19 CNS. Nature of the assay: NCI anticancer screen, dose series, 48 h.
In turn, `O=c1c2cc(S(=O)(=O)Nc3ccccc3Cl)ccc2ncn1NS(=O)(=O)c1ccc(Br)cc1` had a TGI above 37.5 µM.
Take `Nc1ccn(C2CC(O)C(COP(O)(=S)OC3CC(n4ccc(N)nc4=O)OC3CO)O2)c(=O)n1` (configuration not stated): the TGI was above 100 µM.
As to `COc1ccccc1C1CC(=O)CC(c2ccccc2OC)C12C(=O)NC(=S)NC2=O` (configuration not stated), the TGI is above 100 µM.
Compound `Cc1nc2sc(CCl)nn2c(=O)c1Cl` registered a TGI of 32.3 µM.
For `CCOC(=O)c1ccc(C(=O)OCC)n1-c1cc2cc(c1)CSCc1cc(cc(-n3c(C(=O)OCC)ccc3C(=O)OCC)c1)CSC2`, the TGI is above 10 µM.
Consider `CCOC(=O)NC(C(F)(F)F)(C(F)(F)F)P(=O)(OC(C)C)OC(C)C`, for which the TGI was above 100 µM.

For the next assay, the system named is SK-MEL-2 melanoma. Nature of the assay: NCI anticancer screen, dose series, 48 h.
Regarding `O=c1c2cc(S(=O)(=O)Nc3ccccc3Cl)ccc2ncn1NS(=O)(=O)c1ccc(Br)cc1`, the TGI was above 37.5 µM.
For `Nc1ccn(C2CC(O)C(COP(O)(=S)OC3CC(n4ccc(N)nc4=O)OC3CO)O2)c(=O)n1` (configuration not stated), the TGI was above 100 µM.
On the same count and under the same terms, as for `COc1ccccc1C1CC(=O)CC(c2ccccc2OC)C12C(=O)NC(=S)NC2=O` (configuration not stated), the figure is above 100 µM; as for `Cc1nc2sc(CCl)nn2c(=O)c1Cl`, 27.7 µM; as for `CCOC(=O)c1ccc(C(=O)OCC)n1-c1cc2cc(c1)CSCc1cc(cc(-n3c(C(=O)OCC)ccc3C(=O)OCC)c1)CSC2`, above 10 µM.
For `CCOC(=O)NC(C(F)(F)F)(C(F)(F)F)P(=O)(OC(C)C)OC(C)C`, the TGI is above 100 µM.

In another assay the test system is HCT-116 colon. Briefly: NCI anticancer screen, dose series, 48 h.
`O=c1c2cc(S(=O)(=O)Nc3ccccc3Cl)ccc2ncn1NS(=O)(=O)c1ccc(Br)cc1` came in with a TGI above 37.5 µM.
With `Nc1ccn(C2CC(O)C(COP(O)(=S)OC3CC(n4ccc(N)nc4=O)OC3CO)O2)c(=O)n1` (configuration not stated), the TGI was above 100 µM.
Regarding `COc1ccccc1C1CC(=O)CC(c2ccccc2OC)C12C(=O)NC(=S)NC2=O` (configuration not stated), the TGI is above 100 µM.
As for `Cc1nc2sc(CCl)nn2c(=O)c1Cl`, the TGI turned out to be 26.2 µM.
The same measure, in the same setting: as for `CCOC(=O)c1ccc(C(=O)OCC)n1-c1cc2cc(c1)CSCc1cc(cc(-n3c(C(=O)OCC)ccc3C(=O)OCC)c1)CSC2`, the figure is above 10 µM.
On the same count and under the same terms, as for `CCOC(=O)NC(C(F)(F)F)(C(F)(F)F)P(=O)(OC(C)C)OC(C)C`, the figure is above 100 µM.

In the next assay the test system is MOLT-4 leukemia. Nature of the assay: NCI anticancer screen, dose series, 48 h.
Compound `O=c1c2cc(S(=O)(=O)Nc3ccccc3Cl)ccc2ncn1NS(=O)(=O)c1ccc(Br)cc1` had a TGI above 37.5 µM.
Regarding `Nc1ccn(C2CC(O)C(COP(O)(=S)OC3CC(n4ccc(N)nc4=O)OC3CO)O2)c(=O)n1` (configuration not stated), the TGI is above 100 µM.
Compound `COc1ccccc1C1CC(=O)CC(c2ccccc2OC)C12C(=O)NC(=S)NC2=O` (configuration not stated) yielded a TGI of 95.8 µM.
On the same count and under the same terms, as for `Cc1nc2sc(CCl)nn2c(=O)c1Cl`, the figure is 26.7 µM; as for `CCOC(=O)c1ccc(C(=O)OCC)n1-c1cc2cc(c1)CSCc1cc(cc(-n3c(C(=O)OCC)ccc3C(=O)OCC)c1)CSC2`, above 10 µM; as for `CCOC(=O)NC(C(F)(F)F)(C(F)(F)F)P(=O)(OC(C)C)OC(C)C`, above 100 µM.

In a further assay the test system is KM12 colon. Nature of the assay: NCI anticancer screen, dose series, 48 h.
`O=c1c2cc(S(=O)(=O)Nc3ccccc3Cl)ccc2ncn1NS(=O)(=O)c1ccc(Br)cc1` came in with a TGI above 37.5 µM.
The compound `Nc1ccn(C2CC(O)C(COP(O)(=S)OC3CC(n4ccc(N)nc4=O)OC3CO)O2)c(=O)n1` (configuration not stated) yielded a TGI above 100 µM.
Regarding `COc1ccccc1C1CC(=O)CC(c2ccccc2OC)C12C(=O)NC(=S)NC2=O` (configuration not stated), the TGI is above 100 µM.
Same read-out and setting: as for `Cc1nc2sc(CCl)nn2c(=O)c1Cl`, the figure is 25.2 µM.
Same read-out and setting: as for `CCOC(=O)c1ccc(C(=O)OCC)n1-c1cc2cc(c1)CSCc1cc(cc(-n3c(C(=O)OCC)ccc3C(=O)OCC)c1)CSC2`, the figure is above 10 µM.
On the same count and under the same terms, for `CCOC(=O)NC(C(F)(F)F)(C(F)(F)F)P(=O)(OC(C)C)OC(C)C` the value was above 100 µM.

A further assay deals with SR leukemia. Briefly: NCI anticancer screen, dose series, 48 h.
In turn, `O=c1c2cc(S(=O)(=O)Nc3ccccc3Cl)ccc2ncn1NS(=O)(=O)c1ccc(Br)cc1` registered a TGI above 37.5 µM.
On the same count and under the same terms, as for `Nc1ccn(C2CC(O)C(COP(O)(=S)OC3CC(n4ccc(N)nc4=O)OC3CO)O2)c(=O)n1` (configuration not stated), the figure is above 100 µM; as for `COc1ccccc1C1CC(=O)CC(c2ccccc2OC)C12C(=O)NC(=S)NC2=O` (configuration not stated), above 100 µM.
`Cc1nc2sc(CCl)nn2c(=O)c1Cl` displayed a TGI of 26.2 µM.
On to `CCOC(=O)c1ccc(C(=O)OCC)n1-c1cc2cc(c1)CSCc1cc(cc(-n3c(C(=O)OCC)ccc3C(=O)OCC)c1)CSC2`, for which the TGI is above 10 µM.
For the compound `CCOC(=O)NC(C(F)(F)F)(C(F)(F)F)P(=O)(OC(C)C)OC(C)C`, the TGI is above 100 µM.

In another assay the test system is UACC-62 melanoma. Briefly: NCI anticancer screen, dose series, 48 h.
For `O=c1c2cc(S(=O)(=O)Nc3ccccc3Cl)ccc2ncn1NS(=O)(=O)c1ccc(Br)cc1`, the TGI was above 37.5 µM.
Compound `Nc1ccn(C2CC(O)C(COP(O)(=S)OC3CC(n4ccc(N)nc4=O)OC3CO)O2)c(=O)n1` (configuration not stated) yielded a TGI above 100 µM.
Same read-out and setting: as for `COc1ccccc1C1CC(=O)CC(c2ccccc2OC)C12C(=O)NC(=S)NC2=O` (configuration not stated), the figure is above 100 µM.
`Cc1nc2sc(CCl)nn2c(=O)c1Cl` showed a TGI of 36.2 µM.

These data come from PubChem BioAssay (NCI).
